In PubChem BioAssay (NCI):
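96-well plates; 48 h exposure; 5 concentrations. Endpoints by linear interpolation between flanking doses. Not reached: highest tested concentration assigned. Definition used: TGI = concentration required for complete inhibition of growth.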

What was measured:
Assay in all cases: inhibition of tumour cell growth, NCI panel, 48 h
HCT-116 colon = test system: HCT-116 colon
OVCAR-3 ovarian = test system: OVCAR-3 ovarian
HCT-15 colon = test system: HCT-15 colon
HT29 colon = test system: HT29 colon
NCI-H460 lung = test system: NCI-H460 lung
COLO 205 colon = test system: COLO 205 colon
HOP-92 NSCLC = test system: HOP-92 NSCLC
K-562 leukemia = test system: K-562 leukemia
UACC-257 melanoma = test system: UACC-257 melanoma
LOX IMVI melanoma = test system: LOX IMVI melanoma
SK-MEL-28 melanoma = test system: SK-MEL-28 melanoma
SF-295 CNS = test system: SF-295 CNS
A498 renal = test system: A498 renal
ACHN renal = test system: ACHN renal
UACC-62 melanoma = test system: UACC-62 melanoma
MDA-MB-435 = test system: MDA-MB-435
TK-10 renal = test system: TK-10 renal
IGROV1 ovarian = test system: IGROV1 ovarian
HCC-2998 colon = test system: HCC-2998 colon
DU-145 prostate = test system: DU-145 prostate
CCRF-CEM leukemia = test system: CCRF-CEM leukemia
T-47D breast = test system: T-47D breast
OVCAR-5 ovarian = test system: OVCAR-5 ovarian
BT-549 breast = test system: BT-549 breast
UO-31 renal = test system: UO-31 renal
OVCAR-4 ovarian = test system: OVCAR-4 ovarian
SK-OV-3 ovarian = test system: SK-OV-3 ovarian
HS 578T breast = test system: HS 578T breast
RXF 393 renal = test system: RXF 393 renal
SF-539 CNS = test system: SF-539 CNS
NCI-H226 lung = test system: NCI-H226 lung
SK-MEL-5 melanoma = test system: SK-MEL-5 melanoma
NCI/ADR-RES ovarian = test system: NCI/ADR-RES ovarian
M14 melanoma = test system: M14 melanoma
SN12C renal = test system: SN12C renal
EKVX NSCLC = test system: EKVX NSCLC
OVCAR-8 ovarian = test system: OVCAR-8 ovarian
MDA-MB-231 breast = test system: MDA-MB-231 breast
NCI-H522 lung = test system: NCI-H522 lung
HL-60(TB) leukemia = test system: HL-60(TB) leukemia
786-0 renal = test system: 786-0 renal
CAKI-1 renal = test system: CAKI-1 renal
U251 CNS = test system: U251 CNS
SF-268 CNS = test system: SF-268 CNS
SW-620 colon = test system: SW-620 colon
KM12 colon = test system: KM12 colon
NCI-H23 lung = test system: NCI-H23 lung
RPMI-8226 leukemia = test system: RPMI-8226 leukemia
SNB-75 CNS = test system: SNB-75 CNS
SR leukemia = test system: SR leukemia
MOLT-4 leukemia = test system: MOLT-4 leukemia
SK-MEL-2 melanoma = test system: SK-MEL-2 melanoma
HOP-62 NSCLC = test system: HOP-62 NSCLC
SNB-19 CNS = test system: SNB-19 CNS
PC-3 prostate = test system: PC-3 prostate
MCF7 breast = test system: MCF7 breast
A549 NSCLC = test system: A549 NSCLC
MALME-3M melanoma = test system: MALME-3M melanoma

O=C1C=CC(=Nc2ccccc2)c2ccccc21
TGI (HCT-116 colon): 24.4 µM
TGI (OVCAR-3 ovarian): 7.23 µM
TGI (HCT-15 colon): 24.5 µM
TGI (HT29 colon): 34.3 µM
TGI (NCI-H460 lung): 13.8 µM
TGI (COLO 205 colon): 20.3 µM
TGI (HOP-92 NSCLC): 28.4 µM
TGI (K-562 leukemia): 42.6 µM
TGI (UACC-257 melanoma): 8.39 µM
TGI (LOX IMVI melanoma): 16.9 µM
TGI (SK-MEL-28 melanoma): 42 µM
TGI (SF-295 CNS): 21.1 µM
TGI (A498 renal): 39.4 µM
TGI (ACHN renal): 27.4 µM
TGI (UACC-62 melanoma): 12.9 µM
TGI (MDA-MB-435): 3.42 µM
TGI (TK-10 renal): 31.6 µM
TGI (IGROV1 ovarian): 23.2 µM
TGI (HCC-2998 colon): 23.1 µM
TGI (DU-145 prostate): 3.14 µM
TGI (CCRF-CEM leukemia): > 100 µM
TGI (T-47D breast): 47.9 µM
TGI (OVCAR-5 ovarian): 33.4 µM
TGI (BT-549 breast): 28 µM
TGI (UO-31 renal): 23.3 µM
TGI (OVCAR-4 ovarian): 27.4 µM
TGI (SK-OV-3 ovarian): 80.5 µM
TGI (HS 578T breast): 88.6 µM
TGI (RXF 393 renal): 23.2 µM
TGI (SF-539 CNS): 29 µM
TGI (NCI-H226 lung): 28.8 µM
TGI (SK-MEL-5 melanoma): 2.6 µM
TGI (NCI/ADR-RES ovarian): 95.4 µM
TGI (M14 melanoma): 18.6 µM
TGI (SN12C renal): 25.7 µM
TGI (EKVX NSCLC): 12.9 µM
TGI (OVCAR-8 ovarian): 24.6 µM
TGI (MDA-MB-231 breast): 11.3 µM
TGI (NCI-H522 lung): 23.3 µM
TGI (HL-60(TB) leukemia): 21.7 µM
TGI (786-0 renal): 24.7 µM
TGI (CAKI-1 renal): 38.2 µM
TGI (U251 CNS): 20.5 µM
TGI (SF-268 CNS): 24.8 µM
TGI (SW-620 colon): > 100 µM
TGI (KM12 colon): 25.6 µM
TGI (NCI-H23 lung): 13.1 µM
TGI (RPMI-8226 leukemia): 38.3 µM
TGI (SNB-75 CNS): 20 µM
TGI (SR leukemia): 37.1 µM
TGI (MOLT-4 leukemia): 36.2 µM
TGI (SK-MEL-2 melanoma): 8.15 µM
TGI (HOP-62 NSCLC): 25.3 µM
TGI (SNB-19 CNS): > 100 µM
TGI (PC-3 prostate): 22.6 µM
TGI (MCF7 breast): 21.4 µM
TGI (A549 NSCLC): 31 µM

O=C(NNC(=S)Nc1ccc(Br)cc1)c1cc(-c2ccccc2)nc2ccccc12
TGI (HCT-116 colon): 30.4 µM
TGI (MALME-3M melanoma): 43.6 µM
TGI (OVCAR-3 ovarian): 33.1 µM
TGI (HCT-15 colon): 66.9 µM
TGI (HT29 colon): 82.4 µM
TGI (NCI-H460 lung): 43.5 µM
TGI (COLO 205 colon): 53 µM
TGI (HOP-92 NSCLC): 43.4 µM
TGI (K-562 leukemia): 89.8 µM
TGI (UACC-257 melanoma): 61.4 µM
TGI (SK-MEL-28 melanoma): 53 µM
TGI (SF-295 CNS): 38.3 µM
TGI (A498 renal): 28.6 µM
TGI (ACHN renal): > 100 µM
TGI (UACC-62 melanoma): 50.2 µM
TGI (MDA-MB-435): 43.2 µM
TGI (TK-10 renal): 42.2 µM
TGI (IGROV1 ovarian): > 100 µM
TGI (HCC-2998 colon): 30.8 µM
TGI (DU-145 prostate): 40.8 µM
TGI (CCRF-CEM leukemia): 42.8 µM
TGI (T-47D breast): 60.9 µM
TGI (OVCAR-5 ovarian): 79.3 µM
TGI (BT-549 breast): 60.9 µM
TGI (UO-31 renal): 36.4 µM
TGI (OVCAR-4 ovarian): 46.5 µM
TGI (SK-OV-3 ovarian): 47.5 µM
TGI (HS 578T breast): 94.2 µM
TGI (RXF 393 renal): 40.4 µM
TGI (SF-539 CNS): 31.3 µM
TGI (NCI-H226 lung): 73.7 µM
TGI (SK-MEL-5 melanoma): 30.5 µM
TGI (NCI/ADR-RES ovarian): 51.8 µM
TGI (M14 melanoma): 34.8 µM
TGI (SN12C renal): 37.1 µM
TGI (OVCAR-8 ovarian): 57.7 µM
TGI (MDA-MB-231 breast): 65.9 µM
TGI (NCI-H522 lung): 59 µM
TGI (786-0 renal): 33.2 µM
TGI (CAKI-1 renal): 72.6 µM
TGI (U251 CNS): 32.5 µM
TGI (SF-268 CNS): > 100 µM
TGI (SW-620 colon): 46.9 µM
TGI (KM12 colon): > 100 µM
TGI (NCI-H23 lung): 55.8 µM
TGI (RPMI-8226 leukemia): 53.7 µM
TGI (SNB-75 CNS): > 100 µM
TGI (SR leukemia): 40.6 µM
TGI (MOLT-4 leukemia): 52.9 µM
TGI (SK-MEL-2 melanoma): 41.7 µM
TGI (HOP-62 NSCLC): 42 µM
TGI (SNB-19 CNS): > 100 µM
TGI (PC-3 prostate): 46.3 µM
TGI (MCF7 breast): 47.1 µM
TGI (A549 NSCLC): 58 µM
